# From ChEMBL document CHEMBL1201862, “PubChem BioAssay data set” (2004)
#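 Growth conditions: 96-well plates. Treatment: test compound, 48 hours, 5 concentrations. Analysis: linear interpolation between bracketing concentrations; unreached endpoints set to highest concentration. GI50 = concentration required for 50% inhibition of growth.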 Activity calls are given as the source filed them. Cut-off read from the data, not from the text of the source: active = GI50 up to about 1.1 µM and inactive = higher.
# Key:
# Assay in all cases: DTP human tumour cell line panel, 48 h
# MDA-N = tested on: MDA-N
# MCF7 = tested on: MCF7
# RXF 393 = tested on: RXF 393
# SN12C = tested on: SN12C
# HCC 2998 = tested on: HCC 2998
# U-251 = tested on: U-251
# A549 = tested on: A549
# NCI-H522 = tested on: NCI-H522
# RPMI-8226 = tested on: RPMI-8226
# MOLT-4 = tested on: MOLT-4
# NCI-H23 = tested on: NCI-H23
# HOP-92 = tested on: HOP-92
# Malme-3M = tested on: Malme-3M
# NCI/ADR-RES = tested on: NCI/ADR-RES
# NCI-H226 = tested on: NCI-H226
# MDA-MB-435 = tested on: MDA-MB-435
# UACC-62 = tested on: UACC-62
# LOX IMVI = tested on: LOX IMVI
# COLO 205 = tested on: COLO 205
# Hs-578T = tested on: Hs-578T
SMILES,GI50 (MDA-N),GI50 (MCF7),GI50 (RXF 393),GI50 (SN12C),GI50 (HCC 2998),GI50 (U-251),GI50 (A549),GI50 (NCI-H522),GI50 (RPMI-8226),GI50 (MOLT-4),GI50 (NCI-H23),GI50 (HOP-92),GI50 (Malme-3M),GI50 (NCI/ADR-RES),GI50 (NCI-H226),GI50 (MDA-MB-435),GI50 (UACC-62),GI50 (LOX IMVI),GI50 (COLO 205),GI50 (Hs-578T)
O=C1C=C(NCCc2ccccc2)c2ccccc2C1=O,1.78 µM (inactive),1.67 µM (inactive),6.65 µM (inactive),1.85 µM (inactive),1.79 µM (inactive),4.75 µM (inactive),1.95 µM (inactive),1.71 µM (inactive),14.8 µM (inactive),7.33 µM (inactive),2.33 µM (inactive),12.5 µM (inactive),1.06 µM (active),4.11 µM (inactive),2.06 µM (inactive),0.925 µM (active),1.79 µM (inactive),1.43 µM (inactive),1.83 µM (inactive),2.08 µM (inactive)
COc1ccc(/N=N/C(=O)NC(Cc2ccccc2)C(=O)O)cc1 (stereo not given),> 100 µM (inactive),> 100 µM (inactive),> 100 µM (inactive),> 100 µM (inactive),> 100 µM (inactive),> 100 µM (inactive),> 100 µM (inactive),> 100 µM (inactive),> 100 µM (inactive),> 100 µM (inactive),> 100 µM (inactive),28.2 µM (inactive),> 100 µM (inactive),> 100 µM (inactive),> 100 µM (inactive),> 100 µM (inactive),87.9 µM (inactive),> 100 µM (inactive),> 100 µM (inactive),> 100 µM (inactive)
CCOC(=O)Nc1ccc(C)c(NC(=O)OCC)c1,> 100 µM (inactive),> 100 µM (inactive),> 100 µM (inactive),> 100 µM (inactive),56.2 µM (inactive),> 100 µM (inactive),> 100 µM (inactive),> 100 µM (inactive),> 100 µM (inactive),> 100 µM (inactive),> 100 µM (inactive),> 100 µM (inactive),> 100 µM (inactive),> 100 µM (inactive),> 100 µM (inactive),> 100 µM (inactive),> 100 µM (inactive),> 100 µM (inactive),> 100 µM (inactive),> 100 µM (inactive)
COc1cc2c(NCCCCCO)ncnc2c(OC)c1OC,> 100 µM (inactive),> 100 µM (inactive),> 100 µM (inactive),> 100 µM (inactive),> 100 µM (inactive),> 100 µM (inactive),> 100 µM (inactive),> 100 µM (inactive),> 93.1 µM (inactive),> 100 µM (inactive),> 100 µM (inactive),43.8 µM (inactive),> 63 µM (inactive),> 100 µM (inactive),43.9 µM (inactive),> 100 µM (inactive),> 100 µM (inactive),> 100 µM (inactive),> 100 µM (inactive),> 100 µM (inactive)
CSC(=N\c1ccccc1)/N=C(\SCc1ccccc1)N(C)C,0.748 µM (active),0.278 µM (active),0.989 µM (active),1.02 µM (active),0.359 µM (active),1.12 µM (inactive),1.75 µM (inactive),0.21 µM (active),0.218 µM (active),0.382 µM (active),1.24 µM (inactive),1.4 µM (inactive),1.14 µM (inactive),1.38 µM (inactive),1.49 µM (inactive),1.23 µM (inactive),0.555 µM (active),0.189 µM (active),0.407 µM (active),0.859 µM (active)
O=P(Nc1ccccc1)(Oc1ccccc1)N1CCN(c2ccccc2)CC1 (stereo not given),16.9 µM (inactive),17.2 µM (inactive),18.2 µM (inactive),17.8 µM (inactive),16.3 µM (inactive),16.8 µM (inactive),17.5 µM (inactive),4.85 µM (inactive),40.7 µM (inactive),17.9 µM (inactive),19.6 µM (inactive),18.7 µM (inactive),17.2 µM (inactive),17.6 µM (inactive),22.3 µM (inactive),20.8 µM (inactive),12.7 µM (inactive),17.4 µM (inactive),19.6 µM (inactive),17.9 µM (inactive)
COc1ccc(C2C(C)C(=O)C(C)C(c3ccc(OC)cc3)N2N=O)cc1 (stereo not given),163 µM (inactive),372 µM (inactive),40.3 µM (inactive),530 µM (inactive),> 750 µM (inactive),117 µM (inactive),239 µM (inactive),> 427 µM (inactive),> 1000 µM (inactive),> 789 µM (inactive),261 µM (inactive),53.5 µM (inactive),> 537 µM (inactive),258 µM (inactive),207 µM (inactive),166 µM (inactive),> 506 µM (inactive),453 µM (inactive),> 550 µM (inactive),56.5 µM (inactive)
CCOC(=O)CSc1nc2ccccc2c(=O)n1N,> 100 µM (inactive),> 100 µM (inactive),> 100 µM (inactive),63.1 µM (inactive),37.6 µM (inactive),> 100 µM (inactive),83 µM (inactive),> 100 µM (inactive),> 100 µM (inactive),> 100 µM (inactive),> 100 µM (inactive),> 100 µM (inactive),> 100 µM (inactive),> 100 µM (inactive),> 100 µM (inactive),> 100 µM (inactive),> 100 µM (inactive),> 100 µM (inactive),> 100 µM (inactive),> 100 µM (inactive)
C=CCc1cc(-c2cc(CC=C)c(O)c(CN(CC)CC)c2)cc(CN(CC)CC)c1O,31.4 µM (inactive),58.5 µM (inactive),21.4 µM (inactive),85.1 µM (inactive),29 µM (inactive),42.4 µM (inactive),71.6 µM (inactive),20.6 µM (inactive),27.5 µM (inactive),39.9 µM (inactive),60.1 µM (inactive),18 µM (inactive),16.8 µM (inactive),73.1 µM (inactive),48.9 µM (inactive),37.2 µM (inactive),22.2 µM (inactive),16 µM (inactive),26.3 µM (inactive),28.5 µM (inactive)
COC(=O)C1=C(C(=O)OC)SC2(S1)C(C(=O)OC)=C(C(=O)OC)Sc1c2ssc1=O,1.66 µM (inactive),1.26 µM (inactive),1.08 µM (active),1.19 µM (inactive),1.31 µM (inactive),2.12 µM (inactive),9.66 µM (inactive),0.177 µM (active),0.982 µM (active),0.353 µM (active),1.78 µM (inactive),0.826 µM (active),0.61 µM (active),1 µM (active),1.48 µM (inactive),1.57 µM (inactive),0.526 µM (active),0.208 µM (active),0.524 µM (active),5.18 µM (inactive)
O=C(c1ccncc1)C1C(=O)c2ccccc2C1C1(O)c2ccccc2CC1C(O)c1ccncc1 (stereo not given),13.3 µM (inactive),39.6 µM (inactive),39.6 µM (inactive),46.9 µM (inactive),57.3 µM (inactive),41 µM (inactive),29.6 µM (inactive),31.3 µM (inactive),19 µM (inactive),15.1 µM (inactive),48.6 µM (inactive),47.9 µM (inactive),58.7 µM (inactive),46.6 µM (inactive),> 100 µM (inactive),16.9 µM (inactive),18.7 µM (inactive),33.4 µM (inactive),47.6 µM (inactive),38.6 µM (inactive)
COc1c2occc2c(OC)c2c(=O)c(S(=O)(=O)NC(=O)Nc3ccc(Cl)cc3)coc12,> 10 µM (inactive),> 10 µM (inactive),> 10 µM (inactive),> 10 µM (inactive),> 10 µM (inactive),> 10 µM (inactive),> 10 µM (inactive),> 10 µM (inactive),> 10 µM (inactive),> 10 µM (inactive),> 10 µM (inactive),> 10 µM (inactive),> 10 µM (inactive),> 10 µM (inactive),> 10 µM (inactive),> 10 µM (inactive),> 10 µM (inactive),> 10 µM (inactive),> 10 µM (inactive),> 10 µM (inactive)
C=C1CC2(CC(c3ccccc3OC)OC(c3ccccc3OC)C2)OC1=O (stereo not given),1.83 µM (inactive),1.67 µM (inactive),1.81 µM (inactive),1.97 µM (inactive),2.49 µM (inactive),7.16 µM (inactive),4.76 µM (inactive),1.5 µM (inactive),0.25 µM (active),2.07 µM (inactive),2.1 µM (inactive),1.64 µM (inactive),1.72 µM (inactive),2.47 µM (inactive),8.41 µM (inactive),1.91 µM (inactive),2.18 µM (inactive),1.47 µM (inactive),2.36 µM (inactive),2.02 µM (inactive)
O=C1C(NS(=O)(=O)c2ccccc2)=C(n2cnc3ccccc32)C(=O)c2ccccc21,> 100 µM (inactive),> 100 µM (inactive),16 µM (inactive),> 100 µM (inactive),> 100 µM (inactive),46.1 µM (inactive),> 100 µM (inactive),0.187 µM (active),50.5 µM (inactive),> 100 µM (inactive),58.2 µM (inactive),41.4 µM (inactive),> 100 µM (inactive),> 100 µM (inactive),> 100 µM (inactive),> 100 µM (inactive),47.3 µM (inactive),> 100 µM (inactive),> 100 µM (inactive),48.6 µM (inactive)
